Here are results for two molecules from publication PMC3486876 (PLoS Neglected Tropical Diseases, 2012).

Several values for one entry are separate records, joined by “and”; a condition that tells them apart may be missing. Identical values can stand only once. Like-named read-outs stand apart in the source and are kept apart here. Marks after values point to notes of the source that are not given here.

A word on the Hill slope: it is a measure of the steepness of the concentration-response curve. As a reminder, the LD50 is the dose expected to kill half of the subjects tested. One may read the EC50 as the concentration that produces a half-maximal response. The Emax is the maximal effect, on the per cent scale that the assay sets. Usually logP stands for a log measure of how a compound divides between an organic and an aqueous phase.

The target in data set [1] is T1, rat α1β2γ2 GABA(A) receptor (Rattus norvegicus, UniProt P18508+P62813+P63138).
T1 construct: expressed in transfected cells; host or cells: Xenopus laevis oocytes injected with cRNA (constructs a gift from Dr Erwin Sigel)
T1 sequence (P62813 28-455): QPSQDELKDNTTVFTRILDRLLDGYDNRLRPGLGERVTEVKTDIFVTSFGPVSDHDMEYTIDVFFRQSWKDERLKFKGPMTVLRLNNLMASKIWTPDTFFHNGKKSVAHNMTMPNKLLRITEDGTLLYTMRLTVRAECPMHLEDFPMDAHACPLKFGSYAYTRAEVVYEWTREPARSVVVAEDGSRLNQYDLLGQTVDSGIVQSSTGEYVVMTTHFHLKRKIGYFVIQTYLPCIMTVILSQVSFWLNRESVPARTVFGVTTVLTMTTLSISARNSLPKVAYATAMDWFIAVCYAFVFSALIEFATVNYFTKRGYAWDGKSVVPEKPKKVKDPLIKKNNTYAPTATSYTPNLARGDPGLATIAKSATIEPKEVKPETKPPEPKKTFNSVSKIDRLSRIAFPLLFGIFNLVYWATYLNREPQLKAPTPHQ
T1 sequence (P63138 25-474 limits assumed): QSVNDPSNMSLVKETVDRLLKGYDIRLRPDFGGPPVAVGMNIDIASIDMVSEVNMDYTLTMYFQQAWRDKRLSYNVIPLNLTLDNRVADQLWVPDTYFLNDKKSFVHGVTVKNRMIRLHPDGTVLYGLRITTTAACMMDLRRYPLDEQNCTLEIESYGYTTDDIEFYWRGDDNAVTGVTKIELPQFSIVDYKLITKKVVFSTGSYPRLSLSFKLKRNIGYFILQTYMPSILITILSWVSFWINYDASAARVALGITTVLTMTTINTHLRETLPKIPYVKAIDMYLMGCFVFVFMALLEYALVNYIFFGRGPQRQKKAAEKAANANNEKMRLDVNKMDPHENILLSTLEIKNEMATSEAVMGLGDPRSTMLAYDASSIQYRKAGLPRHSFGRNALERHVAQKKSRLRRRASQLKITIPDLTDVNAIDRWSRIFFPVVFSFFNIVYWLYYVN
T1 sequence (P18508 39-466): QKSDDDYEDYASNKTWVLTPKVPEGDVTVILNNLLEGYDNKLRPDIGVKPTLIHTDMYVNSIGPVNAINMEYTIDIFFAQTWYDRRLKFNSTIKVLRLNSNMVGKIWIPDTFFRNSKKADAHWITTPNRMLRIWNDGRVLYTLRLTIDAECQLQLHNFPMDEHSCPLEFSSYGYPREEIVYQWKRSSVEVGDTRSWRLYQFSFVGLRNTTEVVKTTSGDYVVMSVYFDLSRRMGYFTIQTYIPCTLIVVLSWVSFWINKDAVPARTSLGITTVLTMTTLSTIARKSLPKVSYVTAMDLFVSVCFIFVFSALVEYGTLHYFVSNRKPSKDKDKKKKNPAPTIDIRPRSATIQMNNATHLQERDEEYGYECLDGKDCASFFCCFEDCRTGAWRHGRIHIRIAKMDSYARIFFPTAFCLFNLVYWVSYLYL
The data set can be described thus: Two-electrode voltage-clamp of GABA(A) receptor expressed in Xenopus laevis oocytes. Type of data set: cell-based. How it is done:
Oocytes from X. laevis, injected with foreign cDNA of the receptor of choice, are a commonly used tool for studying the activity of plasma membrane receptors. […] Isolation of oocytes from the frogs, defolliculation, culturing of the oocytes and injection of cRNA were performed as described previously. Oocytes were injected with 46 nl of RNA solution, with RNA coding for α1, β2 and γ2 subunits at a ratio of 10∶10∶50 nM [30]. The injected oocytes were incubated in modified Barth's solution [90 mM NaCl, 3 mM KCl, 0.82 mM MgSO4, 0.41 mM CaCl2, 0.34 mM Ca(NO3)2, 100 U/ml penicillin, 100 µg/ml streptomycin and 100 µg/ml kanamycin, 5 mM HEPES pH 7.6] at 18°C for approximately 36 h before the measurements to ensure the expression of a functional receptor.
Electrophysiological experiments were performed by the two-electrode voltage-clamp method. Measurements were done in ND96 medium containing 96 mM NaCl, 2 mM KCl, 1 mM MgCl2, 1.8 mM CaCl2 and 5 mM HEPES, pH 7.5, at a holding potential of −80 mV. Currents were measured using a custom-made two-electrode voltage clamp amplifier in combination with an XY recorder (90% response time, 0.1 s). The intracellular electrodes were filled with 3 M KCl (resistance of 0.5–1.5 MΩ). […] The perfusion solution (6 ml/min) was applied through a glass capillary with an inner diameter of 1.35 mm. […] The modulatory compounds (IVM and MOX) were first dissolved in DMSO at 20 mM and then diluted in ND96 to the final concentration.
Concentration ranges used were: IVM: 0.5 nM–10 µM; MOX: 1 nM–5 µM.
A washout period of 5 min between each agonist application was introduced, allowing receptors to fully recover from desensitization. The perfusion system was cleaned, after application of MLs, between each experiment by washing with 10% DMSO in ND96 to avoid contamination. Three or four different batches of oocytes were used to collect data for each analysis.
All experiments were conducted at least in triplicate. Differences in ML tissue concentrations were analyzed by one-way analysis of variance (ANOVA) with a Tukey post-test and are expressed as mean ± standard deviation (S.D.). […] Half-maximal concentrations (EC50), slope factors (Hill coefficients, nH) and maximal potentiation values for ML-induced activation of current were obtained using the Hill equation. Statistical analysis was performed using unpaired t-tests with Welch's correction to allow for differences in variances (GraphPad Instat, San Diego, CA, USA). Differences were considered statistically significant when p<0.05.

Data set [2] in a line: Acute toxicity (14-day survival, LD50) after subcutaneous administration. The settings on record: mouse, in vivo, sc, Mdr1ab(−/−) mice, survival over 14 days, determined graphically. How it is done: (§1) For acute toxicity experiments, Mdr1ab(−/−) mice (2–8 per dose rate) were injected subcutaneously with drug solutions at dose rates ranging from 0.1–1.75 mg/kg bw (0.11–2.0 µmol/kg bw) for IVM and 0.2–8.2 mg/kg bw (0.31–12.9 µmol/kg bw) for MOX. […] Mice were euthanized when severe tremors or ataxia were noted.

Data set [3] concerns Mdr1ab(−/−) mice. As to the kind of experiment: Neurological symptoms after subcutaneous administration. The format is in vivo, mouse. Particulars: for Neurological signs: 0.46 µmol/kg SC. How it is done: as §1
Data set [4] relates to wild-type mice. The settings on record: cited from earlier work.
Data set [5] deals with Mdr1a-deficient mice. Also noted: method as in PMID 7910522. The settings on record: Mdr1a-deficient mice mutated on only the abcb1a gene; cited from earlier work.
For data set [6] the following is noted: no reference given; cited from earlier work.
For data set [7], the system named is purinergic (ATP) (cationic) receptors. Particulars: cited from earlier work.
Data set [8] deals with acetylcholine receptors. Details: method as in PMID 17707779. The settings on record: cited from earlier work.
For data set [9], the system named is P-gp-deficient dogs. The settings on record: MDR1-deficient dogs, therapeutic dose 0.2 mg/kg; cited from earlier work.
[10] abbreviates: potentiation of current evoked by 2 µM GABA (EC10).

For `NCCCC(=O)O` [GABA, γ-aminobutyric acid], in data set [1] (GABA alone, n = 12), the “EC10 (concentration producing 10% of maximal response)” value turned out to be 2080 ± 1180 nM; the Hill slope is 1.30±0.07 and 1.30±0.02.
Take `CCC(C)[C@H]1O[C@]2(CC[C@@H]1C)C[C@@H]1C[C@@H](C/C=C(\C)[C@@H](O[C@H]3C[C@H](OC)[C@@H](O[C@H]4C[C@H](OC)[C@@H](O)[C@H](C)O4)[C@H](C)O3)[C@@H](C)/C=C/C=C3\CO[C@@H]4[C@H](O)C(C)=CC(C(=O)O1)[C@]34O)O2` (some centres unmarked) [Ivermectin]: the LD50 at 14 days in data set [2] was 0.4 mg/kg and 0.46 µmol/kg. For the same molecule, the Behaviour of mice result in data set [3] (0.11 µmol/kg SC) was “no changes in the behaviour of mice were observed”. Further, the Neurological symptoms observed entry is “Visually normal” in data set [3] (0.11 µmol/kg SC, 1 h post-treatment (ditto marks to 14 d)); “Visually normal” in data set [3] (0.40 µmol/kg SC, 1 h post-treatment (ditto marks to 5 h)); “Lethargy” in data set [3] (0.40 µmol/kg SC, 6 h post-treatment); 2/5 Ataxia ^c/tremor ^d ^† in data set [3] (0.40 µmol/kg SC, 7 h post-treatment, these mice euthanized); 3/5 Sleepiness in [3] (0.40 µmol/kg SC, 12 h post-treatment); “Visually normal” in [3] (0.40 µmol/kg SC, 1 d post-treatment (ditto marks to 14 d)). The Neurological symptoms observed result is listed as “Rapid breathing” in data set [3] (0.69 µmol/kg SC, 2 h post-treatment); “Ataxia ^c” in data set [3] (0.69 µmol/kg SC, 5 h post-treatment); “Lethargy ^†” in [3] (0.69 µmol/kg SC, 6 h post-treatment, mice euthanized). Also, the results for the Neurological signs entry in data set [3] (6 h post-administration) and in [3] (just after administration) were “severe neurotoxic signs” and “hyperactivity”, respectively. Also, the “Start of neurotoxic signs (lethargy, tremors and/or ataxia)” value in [3] (dose rates close to the respective LD50 (0.46 IVM, 2.3 MOX µmol/kg)) is recorded as 6 h. In data set [1], the EC50 was 33.8 ± 7.7 nM. In data set [1] (co-application with 2 µM GABA), the “Maximum potentiation of the GABA(A) receptor by IVM compared with MOX” value is around 2 fold. In [1] (setting [10]), the “Concentration to reach Emax” value was 0.49 µM. The Hill slope in data set [1] (setting [10]) was 1.52±0.45; in [1] (potentiation of current evoked by 2 µM GABA (EC10), listed as IVM), 1.52. Besides, the Emax in data set [1] (read-out: Emax (maximum potentiation relative to GABA alone)) amounted to 414 ± 66.1%. The 50% lethal dose (LD50) in [4] was 27–34 ^b µmol/kg; in data set [4] (oral administration, ref 20 (IVM), 21 (MOX)) it was “around 30 mg/kg”; in data set [5] it was 0.6–0.8 µmol/kg bw. The logP in data set [6] is reported as 4.8. Further, the “Concentration required to potentiate the receptors” value in data set [7] is on record as 3 µM; in data set [8], 30 µM. For the same molecule, the Signs of neurotoxicosis result in [9] is on record as “severe signs of neurotoxicosis”.
